Data taken from patent US9439904B2, “Pyrimidine compounds and their use as gamma secretase modulators” (Acturum Life Science AB, priority 2013, dated 2016).

Key:
[1] = tested on: Aβ42; assay: PCN assay: Aβ42 secreted by primary cortical neuronal cells, ELISA; assay type: cell-based; details: primary cortical neuronal cells from 16-day mouse embryos; 16-20 hours incubation with test compound; read-out: pIC50 Aβ42 PCN assay (converted)
Description: Compounds were diluted in 100% DMSO and stored at […] prior to use. Primary cortical neuronal cells (PCN) were isolated from 16-day mouse embryos and cultured in Ham's F12 media containing 10% Foetal bovine serum, 10 mM Hepes, 2 mM L-glutamine and 100 U/mL Penicillin-Streptomycin. 150000-250000 cells/well, in 200 μL cell media were seeded onto 96-well poly-D-Lysine coated plates. After incubation at 37° C., 5% CO2 for five days, the media was exchanged for fresh medium containing test compound diluted ×100, before further incubation for 16-20 hours at 37° C. and 5% CO2. After incubation with test compound the amount of […] secreted to cell medium was analyzed using the solid phase sandwich Enzyme-Linked-Immuno-Sorbent Assay (ELISA)-kit from Invitrogen for detection of mouse βAmyloid 1-42. Potential cytotoxic effects of the compounds were assayed by measuring the ATP content (Via Light) from cell lysate.

[2] = tested on: Aβ42; assay: HEK assay: Aβ42 secreted to cell medium, Meso Scale Discovery electrochemiluminescence; assay type: cell-based; details: Homo sapiens, HEK293; HEK cell line stably expressing APPswe; 4-6 hours incubation with test compound; read-out: pIC50 Aβ42 HEK assay (converted)
Description: Compounds were diluted in 100% DMSO and stored at […] prior to use. Human Embryonic Kidney (HEK) cell line stably expressing APP with the Swedish mutation (APPswe) was cultured using Dulbecco's Modified Eagles medium (DMEM) supplied with […] glucose, Na-pyruvate and GlutaMAX, 10% Foetal bovine serum, 100 U/mL penicillin-streptomycin (PEST), 1× non-essential amino acids (NEAA), […] Hepes, 100 μg/mL Zeocine. Cells at about 80% confluence were washed with PBS, detached from culture flasks using 1× Trypsin/EDTA diluted in PBS, re-suspended in cell media and plated in 384-well poly-d-lysine coated cell culture plates at about 10000-15000 cells/well, in 25 μL cell media. Optionally, cryo-preserved cells (frozen and stored at −140° C. in 90% cell media and 10% DMSO) were thawed, washed and plated as above. Next the cells were incubated for 15-24 h at 37° C. and 5% CO2, after which cell medium was changed. Fresh medium containing test compound diluted ×200 from prepared compound plate was added to the cells before further incubation for 4-6 hours at 37° C. and 5% CO2. After incubation with test compound the amount of Aβ peptides, including Aβ42, Aβ40, Aβ39, Aβ38 and Aβ37, secreted to cell medium was analyzed using the electrochemiluminescence assay technology from Meso Scale Discovery Technology, in combination with specific antibodies raised against the different Aβ peptides. Potential cytotoxic effects of the compounds were assayed by measuring the ATP content (ViaLight) from cell lysate.

IC50 [2] [nM] | SMILES | IC50 [1] [nM]
25.1 | COc1cc(Nc2nc(C(C)OCC(F)(F)F)cc(C(C)(C)O)n2)ccc1-n1cnc(C)c1 (stereo not drawn) [Example 11, 2-(2-(3-Methoxy-4-(4-methyl-1H-imidazol-1-yl)phenylamino)-6-(1-(2,2,2-trifluoroethoxy)ethyl)pyrimidin-4-yl)propan-2-ol] | 50.1
50.1 | CCC(C)(O)c1cc(COCC(F)(F)F)nc(Nc2ccc(-n3cnc(C)c3)c(OC)c2)n1 (stereo not drawn) [Example 45, 2-(2-(3-Methoxy-4-(4-methyl-1H-imidazol-1-yl)phenylamino)-6-((2,2,2-trifluoroethoxy)-methyl)pyrimidin-4-yl)butan-2-ol] | 63.1
39.8 | COCCNc1cc(COCC(F)(F)F)nc(Nc2ccc(-n3cnc(C)c3)c(OC)c2)n1 [Example 37, N2-(3-Methoxy-4-(4-methyl-1H-imidazol-1-yl)phenyl)-N4-(2-methoxyethyl)-6-((2,2,2-trifluoroethoxy)methyl)pyrimidine-2,4-diamine] | 63.1
79.4 | COc1cc(Nc2nc(COCC(F)(F)F)cc(C(O)C(F)(F)F)n2)ccc1-n1cnc(C)c1 (stereo not drawn) [Example 12, 2,2,2-Trifluoro-1-(2-(3-methoxy-4-(4-methyl-1H-imidazol-1-yl)phenylamino)-6-((2,2,2-trifluoroethoxy)methyl)pyrimidin-4-yl)ethanol] | 39.8
79.4 | COc1cc(Nc2nc(COCC(F)(F)F)cc(N3CCC(F)(F)CC3)n2)ccc1-c1cnnc(C)c1 [Example 22, 4-(4,4-Difluoropiperidin-1-yl)-N-(3-methoxy-4-(6-methylpyridazin-4-yl)phenyl)-6-((2,2,2-trifluoroethoxy)methyl)pyrimidin-2-amine] | 63.1
31.6 | COc1cc(Nc2nc(COCC(F)(F)F)cc(C(C)N3CC(F)C3)n2)ccc1-n1cnc(C)c1 (stereo not drawn) [Example 43, 4-(1-(3-Fluoroazetidin-1-yl)ethyl)-N-(3-methoxy-4-(4-methyl-1H-imidazol-1-yl)phenyl)-6-((2,2,2-trifluoroethoxy)methyl)pyrimidin-2-amine] | 158
63.1 | COc1cc(Nc2nc(COCC(F)(F)F)cc(OCC3CC3)n2)ccc1-n1cnc(C)c1 [Example 51, 4-(Cyclopropylmethoxy)-N-[3-methoxy-4-(4-methyl-1H-imidazol-1-yl)phenyl]-6-[(2,2,2-trifluoroethoxy)methyl]pyrimidin-2-amine] | 126
63.1 | COc1cc(Nc2nc(CO)cc(COCC(F)(F)F)n2)ccc1-n1cnc(C)c1 [Example 10, (2-(3-Methoxy-4-(4-methyl-1H-imidazol-1-yl)phenylamino)-6-((2,2,2-trifluoroethoxy)methyl)pyrimidin-4-yl)methanol] | 31.6
25.1 | CNc1nc(Nc2ccc(-n3cnc(C)c3)c(OC)c2)nc(COCC(F)(F)F)c1C [Example 4, N^2-(3-Methoxy-4-(4-methyl-1H-imidazol-1-yl)phenyl)-N^4,5-dimethyl-6-((2,2,2-trifluoroethoxy)methyl)pyrimidine-2,4-diamine] | 10
31.6 | COc1cc(Nc2nc(COCC(F)(F)F)cc(C(C)(C)O)n2)ccc1-n1cnc(C)c1 [Example 15, 2-(2-(3-Methoxy-4-(4-methyl-1H-imidazol-1-yl)phenylamino)-6-((2,2,2-trifluoroethoxy)-methyl)pyrimidin-4-yl)propan-2-ol] | 50.1
126 | COc1cc(Nc2nc(COCC(F)(F)F)cc(CN3CC(F)C3)n2)ccc1-n1cnc(C)c1 [Example 40, 4-((3-Fluoroazetidin-1-yl)methyl)-N-(3-methoxy-4-(4-methyl-1H-imidazol-1-yl)phenyl)-6-((2,2,2-trifluoroethoxy)methyl)pyrimidin-2-amine] | 100
25.1 | COc1cc(Nc2nc(COCC(F)(F)F)cc(N(C)Cc3ccccc3)n2)ccc1-n1cnc(C)c1 [Example 25, N^4-Benzyl-N^2-(3-methoxy-4-(4-methyl-1H-imidazol-1-yl)phenyl)-N^4-methyl-6-((2,2,2-trifluoroethoxy)methyl)pyrimidine-2,4-diamine] | 50.1
63.1 | COc1cc(Nc2nc(COCC(F)(F)F)cc(NCC(C)(C)O)n2)ccc1-n1cnc(C)c1 [Example 36, 1-(2-(3-Methoxy-4-(4-methyl-1H-imidazol-1-yl)phenylamino)-6-((2,2,2-trifluoroethoxy)-methyl)pyrimidin-4-ylamino)-2-methylpropan-2-ol] | 39.8
200 | COc1cc(Nc2nc(COCC3CC(F)(F)C3)cc(C(C)(C)O)n2)ccc1-n1cnc(C)c1 [Example 17, 2-(6-(((3,3-Difluorocyclobutyl)methoxy)methyl)-2-(3-methoxy-4-(4-methyl-1H-imidazol-1-yl)phenylamino)pyrimidin-4-yl)propan-2-ol] | 200
31.6 | COc1cc(Nc2nc(COCC(F)(F)F)c(C)c(C(C)O)n2)ccc1-n1cnc(C)c1 (stereo not drawn) [Example 6, 1-(2-(3-Methoxy-4-(4-methyl-1H-imidazol-1-yl)phenylamino)-5-methyl-6-((2,2,2-trifluoroethoxy)methyl)pyrimidin-4-yl)ethanol] | 31.6
